Test results published in PubChem BioAssay AID256 (DTP/NCI, 2004).
Where “and” joins values, the source holds several entries; their conditions need not be identical. Equal entries are not always repeated. Toxic doses and inconclusive results are not listed.

System: CD2F1 mice, L1210 leukemia ip, survival T/C
Assay: NCI In Vivo Anticancer Drug Screen. Data for tumor model L1210 Leukemia (intraperitoneal) in CD2F1 (CDF1) mice
Conditions: higher = longer survival
Outline: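 Compound-dosed mice with transplantable tumor versus matched vehicle controls; endpoint ratio T/C reported.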

[1] = endpoint: mean survival time, dose: 100.0 mg/kg/injection, schedule: Q04DX003 (ip), vehicle: saline with Tween-80
[2] = endpoint: mean survival time, dose: 200.0 mg/kg/injection, schedule: Q04DX003 (ip), vehicle: saline with Tween-80
[3] = endpoint: mean survival time, dose: 400.0 mg/kg/injection, schedule: Q04DX003 (ip), vehicle: saline with Tween-80
[4] = endpoint: mean survival time, dose: 12.5 mg/kg/injection, schedule: Q01DX009 (ip), vehicle: other
[5] = endpoint: mean survival time, dose: 25.0 mg/kg/injection, schedule: Q01DX009 (ip), vehicle: other
[6] = endpoint: mean survival time, dose: 50.0 mg/kg/injection, schedule: Q01DX009 (ip), vehicle: other
[7] = endpoint: mean survival time, dose: 100.0 mg/kg/injection, schedule: Q01DX009 (ip), vehicle: other
[8] = endpoint: mean survival time, dose: 200.0 mg/kg/injection, schedule: Q01DX009 (ip), vehicle: other

CC1(CCO)NC(=O)NC1=O (stereo unspecified)
T/C (endpoint: mean survival time, dose: 100.0 mg/kg/injection, schedule: Q01DX009 (ip), vehicle: saline sonified): 97 % of control
T/C (endpoint: mean survival time, dose: 100.0 mg/kg/injection, schedule: Q04DX003 (ip), vehicle: saline): 100 % of control
T/C (endpoint: mean survival time, dose: 200.0 mg/kg/injection, schedule: Q01DX009 (ip), vehicle: saline sonified): 97 % of control
T/C (endpoint: mean survival time, dose: 200.0 mg/kg/injection, schedule: Q04DX003 (ip), vehicle: saline): 96 % of control
T/C (endpoint: mean survival time, dose: 400.0 mg/kg/injection, schedule: Q01DX009 (ip), vehicle: saline sonified): 97 % of control
T/C (endpoint: mean survival time, dose: 400.0 mg/kg/injection, schedule: Q04DX003 (ip), vehicle: saline): 100 % of control

O=C(COc1ccc(Cl)c(Cl)c1)NCc1cccc([N+](=O)[O-])c1
T/C (endpoint: mean survival time, dose: 75.0 mg/kg/injection, schedule: Q01DX001 (ip), vehicle: saline with Tween-80): 93 % of control
T/C (endpoint: mean survival time, dose: 150.0 mg/kg/injection, schedule: Q01DX001 (ip), vehicle: saline with Tween-80): 88 % of control
T/C (endpoint: mean survival time, dose: 300.0 mg/kg/injection, schedule: Q01DX001 (ip), vehicle: saline with Tween-80): 86 % of control

CC(C)(C)CC(C)(C)c1ccc(OCCOc2ccccc2NC(=O)CC(=O)c2cccc([N+](=O)[O-])c2)cc1
T/C (endpoint: mean survival time, dose: 100.0 mg/kg/injection, schedule: Q01DX009 (ip), vehicle: Klucel (hydroxypropylcellulose) (HPC)): 98 % of control
T/C [1]: 97 % of control
T/C (endpoint: mean survival time, dose: 200.0 mg/kg/injection, schedule: Q01DX009 (ip), vehicle: Klucel (hydroxypropylcellulose) (HPC)): 93 % of control
T/C [2]: 101 % of control
T/C (endpoint: mean survival time, dose: 400.0 mg/kg/injection, schedule: Q01DX009 (ip), vehicle: Klucel (hydroxypropylcellulose) (HPC)): 90 % of control
T/C [3]: 92 % of control

COc1cc(N2C(N)=NC(N)=NC2(C)C)cc(OC)c1OC
T/C (endpoint: mean survival time, dose: 6.25 mg/kg/injection, schedule: Q04DX003 (ip), vehicle: saline): 97 % of control
T/C (endpoint: mean survival time, dose: 12.5 mg/kg/injection, schedule: Q04DX003 (ip), vehicle: saline): 102 % of control
T/C (endpoint: mean survival time, dose: 25.0 mg/kg/injection, schedule: Q04DX003 (ip), vehicle: saline): 102 % of control

Nc1ccc(C(=O)CC(O)(C(F)(F)F)C(F)(F)F)cc1
T/C [1]: 113 % of control
T/C [2]: 111 % of control
T/C [3]: 113 % of control

CN(Cc1c[nH]c2nc(N)nc(N)c2c1=O)c1ccc(C(=O)NC(CCC(=O)O)C(=O)O)cc1 (stereo unspecified)
T/C (endpoint: mean survival time, dose: 0.5 mg/kg/injection, schedule: Q01DX005 (ip), vehicle: sodium bicarbonate): 97 % of control and 98 % of control
T/C (endpoint: mean survival time, dose: 1.0 mg/kg/injection, schedule: Q01DX005 (ip), vehicle: distilled water + Tween-80): 105 % of control
T/C (endpoint: mean survival time, dose: 1.0 mg/kg/injection, schedule: Q01DX005 (ip), vehicle: sodium bicarbonate): 91 % of control and 108 % of control
T/C (endpoint: mean survival time, dose: 2.0 mg/kg/injection, schedule: Q01DX005 (ip), vehicle: distilled water + Tween-80): 102 % of control
T/C (endpoint: mean survival time, dose: 2.0 mg/kg/injection, schedule: Q01DX005 (ip), vehicle: sodium bicarbonate): 97 % of control and 103 % of control
T/C (endpoint: mean survival time, dose: 4.0 mg/kg/injection, schedule: Q01DX005 (ip), vehicle: distilled water + Tween-80): 100 % of control
T/C (endpoint: mean survival time, dose: 4.0 mg/kg/injection, schedule: Q01DX005 (ip), vehicle: sodium bicarbonate): 121 % of control and 104 % of control
T/C (endpoint: mean survival time, dose: 8.0 mg/kg/injection, schedule: Q01DX005 (ip), vehicle: distilled water + Tween-80): 97 % of control
T/C (endpoint: mean survival time, dose: 8.0 mg/kg/injection, schedule: Q01DX005 (ip), vehicle: sodium bicarbonate): 101 % of control
T/C (endpoint: mean survival time, dose: 16.0 mg/kg/injection, schedule: Q01DX005 (ip), vehicle: distilled water + Tween-80): 102 % of control
T/C (endpoint: mean survival time, dose: 16.0 mg/kg/injection, schedule: Q01DX005 (ip), vehicle: sodium bicarbonate): 98 % of control and 102 % of control

O=C(Nc1cc(C(F)(F)F)ccc1Cl)c1cccc(C(=O)Nc2cc(C(F)(F)F)ccc2Cl)c1
T/C (endpoint: mean survival time, dose: 12.5 mg/kg/injection, schedule: Q01DX009 (ip), vehicle: saline with Tween-80): 86 % of control
T/C (endpoint: mean survival time, dose: 25.0 mg/kg/injection, schedule: Q01DX009 (ip), vehicle: saline with Tween-80): 90 % of control
T/C (endpoint: mean survival time, dose: 50.0 mg/kg/injection, schedule: Q01DX009 (ip), vehicle: saline with Tween-80): 92 % of control

CCOC(=O)CCC1(CCC(=O)OCC)c2ccccc2-c2ccccc21
T/C (endpoint: mean survival time, dose: 100.0 mg/kg/injection, schedule: Q01DX001 (ip), vehicle: Klucel (hydroxypropylcellulose) (HPC)): 96 % of control
T/C (endpoint: mean survival time, dose: 200.0 mg/kg/injection, schedule: Q01DX001 (ip), vehicle: Klucel (hydroxypropylcellulose) (HPC)): 104 % of control
T/C (endpoint: mean survival time, dose: 400.0 mg/kg/injection, schedule: Q01DX001 (ip), vehicle: Klucel (hydroxypropylcellulose) (HPC)): 104 % of control

CC(C)OC(=O)Nc1ccc(F)cc1F
T/C [1]: 96 % of control
T/C [2]: 102 % of control
T/C [3]: 98 % of control

COC(=O)NC(=O)c1cn[nH]n1
T/C [4]: 98 % of control
T/C [5]: 103 % of control
T/C [6]: 97 % of control
T/C [7]: 101 % of control
T/C [8]: 95 % of control

Cc1ccc(NC(=O)c2ccc(C(=O)Nc3ccc(C)c(Cl)c3)cc2)cc1Cl
T/C (endpoint: mean survival time, dose: 100.0 mg/kg/injection, schedule: Q01DX001 (ip), vehicle: saline): 89 % of control
T/C (endpoint: mean survival time, dose: 200.0 mg/kg/injection, schedule: Q01DX001 (ip), vehicle: saline): 98 % of control
T/C (endpoint: mean survival time, dose: 400.0 mg/kg/injection, schedule: Q01DX001 (ip), vehicle: saline): 89 % of control

N#CN(Cc1ccc(Cl)cc1Cl)C(=O)OCOc1ccc(Cl)cc1
T/C [1]: 88 % of control
T/C [2]: 89 % of control
T/C [3]: 96 % of control

CCCCCCOC(=O)C(O)c1ccccc1 (stereo unspecified)
T/C [1]: 103 % of control
T/C [2]: 103 % of control
T/C [3]: 97 % of control

NC(CCl)=NCc1ccccn1
T/C (endpoint: mean survival time, dose: 25.0 mg/kg/injection, schedule: Q04DX002 (ip), vehicle: saline): 108 % of control
T/C (endpoint: mean survival time, dose: 50.0 mg/kg/injection, schedule: Q04DX002 (ip), vehicle: saline): 97 % of control
T/C (endpoint: mean survival time, dose: 100.0 mg/kg/injection, schedule: Q04DX002 (ip), vehicle: saline): 101 % of control

NC1CCCN(Cc2ccccc2)C1 (stereo unspecified)
T/C (endpoint: mean survival time, dose: 75.0 mg/kg/injection, schedule: Q01DX001 (ip), vehicle: saline): 95 % of control
T/C (endpoint: mean survival time, dose: 150.0 mg/kg/injection, schedule: Q01DX001 (ip), vehicle: saline): 97 % of control
T/C (endpoint: mean survival time, dose: 300.0 mg/kg/injection, schedule: Q01DX001 (ip), vehicle: saline): 97 % of control

OC(c1ccccc1)(c1ccccc1)c1ccc(CN2CCCCC2)cc1
T/C [4]: 94 % of control
T/C [5]: 92 % of control
T/C [6]: 86 % of control
T/C [7]: 86 % of control
T/C [8]: 87 % of control

NC(=S)N/N=C/c1ncccc1O
T/C (endpoint: mean survival time, dose: 3.13 mg/kg/injection, schedule: Q03HX024 (ip), vehicle: saline): 117 % of control
T/C (endpoint: mean survival time, dose: 50.0 mg/kg/injection, schedule: Q03HX024 (ip), vehicle: saline): 102 % of control
T/C (endpoint: median survival time, dose: 21.8 mg/kg/injection, schedule: Q03HX008 (ip), vehicle: suspension in saline): 156 % of control
T/C (endpoint: median survival time, dose: 32.5 mg/kg/injection, schedule: Q03HX008 (ip), vehicle: suspension in saline): 164 % of control
T/C (endpoint: median survival time, dose: 45.0 mg/kg/injection, schedule: Q04DX003 (ip), vehicle: suspension in saline): 121 % of control
T/C (endpoint: median survival time, dose: 48.5 mg/kg/injection, schedule: Q03HX008 (ip), vehicle: suspension in saline): 174 % of control
T/C (endpoint: median survival time, dose: 50.0 mg/kg/injection, schedule: Q01DX005 (ip), vehicle: saline): 156 % of control
T/C (endpoint: median survival time, dose: 72.4 mg/kg/injection, schedule: Q03HX008 (ip), vehicle: suspension in saline): 109 % of control
T/C (endpoint: median survival time, dose: 90.0 mg/kg/injection, schedule: Q04DX003 (ip), vehicle: suspension in saline): 122 % of control
T/C (endpoint: median survival time, dose: 100.0 mg/kg/injection, schedule: Q01DX005 (ip), vehicle: suspension in saline): 150 % of control
T/C (endpoint: median survival time, dose: 108.0 mg/kg/injection, schedule: Q04DX003 (ip), vehicle: suspension in saline): 152 % of control
T/C (endpoint: median survival time, dose: 180.0 mg/kg/injection, schedule: Q03HX024 (ip), vehicle: saline): 86 % of control
T/C (endpoint: median survival time, dose: 200.0 mg/kg/injection, schedule: Q01DX005 (ip), vehicle: suspension in saline): 117 % of control
T/C (endpoint: median survival time, dose: 241.0 mg/kg/injection, schedule: Q04DX003 (ip), vehicle: suspension in saline): 151 % of control
T/C (endpoint: median survival time, dose: 360.0 mg/kg/injection, schedule: Q04DX003 (ip), vehicle: suspension in saline): 161 % of control
T/C (endpoint: median survival time, dose: 537.0 mg/kg/injection, schedule: Q04DX003 (ip), vehicle: suspension in saline): 109 % of control
T/C (endpoint: median survival time, dose: 720.0 mg/kg/injection, schedule: Q04DX003 (ip), vehicle: suspension in saline): 119 % of control

Cc1ccc(N)c(N)c1
T/C (endpoint: median survival time, dose: 25.0 mg/kg/injection, schedule: Q01DX009 (ip), vehicle: saline with Tween-80): 98 % of control
T/C (endpoint: median survival time, dose: 50.0 mg/kg/injection, schedule: Q01DX009 (ip), vehicle: saline with Tween-80): 98 % of control
T/C (endpoint: median survival time, dose: 100.0 mg/kg/injection, schedule: Q01DX009 (ip), vehicle: saline with Tween-80): 96 % of control
